{"source": "patent US10954269B2", "about": "“Anti-inflammatory tripeptides” (Dr. August Wolff Gmbh & Co. KG Arzneimittel, priority 2013, dated 2021)", "system": "primary murine T-cells", "experiment": "Cytokine secretion on protein level in activated primary murine T-cells (13-plex FACS / Luminex, supernatant)", "format": "cell-based, C57BL/6 mice", "summary_of_the_method": "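T-cells from secondary lymphatic organs of naïve C57BL/6 mice, stimulated with PMA/Ionomycin or IFN-γ; supernatant cytokines measured by 13-plex FACS 48 h and 72 h after stimulation. In another run, PMA/Ionomycin-stimulated cells received compounds at 10^−7, 10^−9 and 10^−11 M, with IFN-γ, IL-17 and IL-10 measured by Luminex.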", "key": {"[1]": {"settings": "primary murine T-cells stimulated with IFN-γ, 10^−9M"}, "[2]": {"settings": "primary murine T-cells stimulated with IFN-γ, substance 10^−9M"}, "[3]": {"settings": "primary murine T-cells stimulated with PBS, 10^−9M"}, "[4]": {"settings": "primary murine T-cells stimulated with PBS, substance 10^−9M"}, "[5]": {"settings": "primary murine T-cells stimulated with PMA/Ionomycin, 10^−9M"}, "[6]": {"settings": "primary murine T-cells stimulated with PMA/Ionomycin, 10^−9M, 1:10 dilution of the supernatants"}, "[7]": {"settings": "primary murine T-cells stimulated with PMA/Ionomycin, substance 10^−9M"}}}
{"substance": "alpha-melanocyte-stimulating hormone [α-MSH, reference compound]", "values": [{"measurement": "IL-1 cytokine concentration", "setting": "[1]", "value": 14.89, "unit": "pg/mL"}, {"measurement": "IL-2 cytokine concentration", "setting": "[1]", "value": 0, "unit": "pg/mL"}, {"measurement": "IL-4 cytokine concentration", "setting": "[1]", "value": 0, "unit": "pg/mL"}, {"measurement": "IL-5 cytokine concentration", "setting": "[1]", "value": 0, "unit": "pg/mL"}, {"measurement": "IL-6 cytokine concentration", "setting": "[1]", "value": 0, "unit": "pg/mL"}, {"measurement": "IL-10 cytokine concentration", "setting": "[1]", "value": 0, "unit": "pg/mL"}, {"measurement": "IL-13 cytokine concentration", "setting": "[1]", "value": 0, "unit": "pg/mL"}, {"measurement": "IL-17 cytokine concentration", "setting": "[1]", "value": 0, "unit": "pg/mL"}, {"measurement": "IL-21 cytokine concentration", "setting": "[1]", "value": 0, "unit": "pg/mL"}, {"measurement": "IL-22 cytokine concentration", "setting": "[1]", "value": 0, "unit": "pg/mL"}, {"measurement": "IL-27 cytokine concentration", "setting": "[1]", "value": 0, "unit": "pg/mL"}, {"measurement": "TNF-α cytokine concentration", "setting": "[1]", "value": 0, "unit": "pg/mL"}, {"measurement": "IL-1 cytokine concentration", "setting": "[2]", "value": 88.22, "unit": "pg/mL"}, {"measurement": "IL-2 cytokine concentration", "setting": "[2]", "value": 96.1, "unit": "pg/mL"}, {"measurement": "IL-4 cytokine concentration", "setting": "[2]", "value": 20.56, "unit": "pg/mL"}, {"measurement": "IL-5 cytokine concentration", "setting": "[2]", "value": 220.39, "unit": "pg/mL"}, {"measurement": "IL-6 cytokine concentration", "setting": "[2]", "value": 133.9, "unit": "pg/mL"}, {"measurement": "IL-10 cytokine concentration", "setting": "[2]", "value": 1117.07, "unit": "pg/mL"}, {"measurement": "IL-13 cytokine concentration", "setting": "[2]", "value": 0, "unit": "pg/mL"}, {"measurement": "IL-17 cytokine concentration", "setting": "[2]", "value": 55.11, "unit": "pg/mL"}, {"measurement": "IL-21 cytokine concentration", "setting": "[2]", "value": 0, "unit": "pg/mL"}, {"measurement": "IL-22 cytokine concentration", "setting": "[2]", "value": 50.6, "unit": "pg/mL"}, {"measurement": "IL-27 cytokine concentration", "setting": "[2]", "value": 104.04, "unit": "pg/mL"}, {"measurement": "TNF-α cytokine concentration", "setting": "[2]", "value": 36.8, "unit": "pg/mL"}, {"measurement": "IFN-γ cytokine concentration", "setting": "[3]", "value": 0, "unit": "pg/mL"}, {"measurement": "IL-1 cytokine concentration", "setting": "[3]", "value": 0, "unit": "pg/mL"}, {"measurement": "IL-2 cytokine concentration", "setting": "[3]", "value": 0, "unit": "pg/mL"}, {"measurement": "IL-4 cytokine concentration", "setting": "[3]", "value": 0, "unit": "pg/mL"}, {"measurement": "IL-5 cytokine concentration", "setting": "[3]", "value": 0, "unit": "pg/mL"}, {"measurement": "IL-6 cytokine concentration", "setting": "[3]", "value": 16.44, "unit": "pg/mL"}, {"measurement": "IL-10 cytokine concentration", "setting": "[3]", "value": 55.47, "unit": "pg/mL"}, {"measurement": "IL-13 cytokine concentration", "setting": "[3]", "value": 0, "unit": "pg/mL"}, {"measurement": "IL-17 cytokine concentration", "setting": "[3]", "value": 0, "unit": "pg/mL"}, {"measurement": "IL-21 cytokine concentration", "setting": "[3]", "value": 0, "unit": "pg/mL"}, {"measurement": "IL-22 cytokine concentration", "setting": "[3]", "value": 0, "unit": "pg/mL"}, {"measurement": "IL-27 cytokine concentration", "setting": "[3]", "value": 0, "unit": "pg/mL"}, {"measurement": "TNF-α cytokine concentration", "setting": "[3]", "value": 0, "unit": "pg/mL"}, {"measurement": "IFN-γ cytokine concentration", "setting": "[4]", "value": 0, "unit": "pg/mL"}, {"measurement": "IL-1 cytokine concentration", "setting": "[4]", "value": 58.5, "unit": "pg/mL"}, {"measurement": "IL-2 cytokine concentration", "setting": "[4]", "value": 105.75, "unit": "pg/mL"}, {"measurement": "IL-4 cytokine concentration", "setting": "[4]", "value": 62.93, "unit": "pg/mL"}, {"measurement": "IL-5 cytokine concentration", "setting": "[4]", "value": 281.14, "unit": "pg/mL"}, {"measurement": "IL-6 cytokine concentration", "setting": "[4]", "value": 96.88, "unit": "pg/mL"}, {"measurement": "IL-10 cytokine concentration", "setting": "[4]", "value": 1157.87, "unit": "pg/mL"}, {"measurement": "IL-13 cytokine concentration", "setting": "[4]", "value": 0, "unit": "pg/mL"}, {"measurement": "IL-17 cytokine concentration", "setting": "[4]", "value": 0, "unit": "pg/mL"}, {"measurement": "IL-21 cytokine concentration", "setting": "[4]", "value": 0, "unit": "pg/mL"}, {"measurement": "IL-22 cytokine concentration", "setting": "[4]", "value": 72.14, "unit": "pg/mL"}, {"measurement": "IL-27 cytokine concentration", "setting": "[4]", "value": 77.41, "unit": "pg/mL"}, {"measurement": "TNF-α cytokine concentration", "setting": "[4]", "value": 106.1, "unit": "pg/mL"}, {"measurement": "IL-1 cytokine concentration", "setting": "[5]", "value": 28.92, "unit": "pg/mL"}, {"measurement": "IL-4 cytokine concentration", "setting": "[5]", "value": 0, "unit": "pg/mL"}, {"measurement": "IL-5 cytokine concentration", "setting": "[5]", "value": 262.76, "unit": "pg/mL"}, {"measurement": "IL-6 cytokine concentration", "setting": "[5]", "value": 114.47, "unit": "pg/mL"}, {"measurement": "IL-10 cytokine concentration", "setting": "[5]", "value": 276.08, "unit": "pg/mL"}, {"measurement": "IL-13 cytokine concentration", "setting": "[5]", "value": 3966.69, "unit": "pg/mL"}, {"measurement": "IL-17 cytokine concentration", "setting": "[5]", "value": 311.07, "unit": "pg/mL"}, {"measurement": "IL-21 cytokine concentration", "setting": "[5]", "value": 0, "unit": "pg/mL"}, {"measurement": "IL-22 cytokine concentration", "setting": "[5]", "value": 356.41, "unit": "pg/mL"}, {"measurement": "IL-27 cytokine concentration", "setting": "[5]", "value": 0, "unit": "pg/mL"}, {"measurement": "TNF-α cytokine concentration", "setting": "[5]", "value": 535.51, "unit": "pg/mL"}, {"measurement": "IFN-γ* cytokine concentration", "setting": "[6]", "value": 0, "unit": "pg/mL"}, {"measurement": "IL-2* cytokine concentration", "setting": "[6]", "value": 849.44, "unit": "pg/mL"}, {"measurement": "IFN-γ cytokine concentration", "setting": "[7]", "value": 1458.12, "unit": "pg/mL"}, {"measurement": "IL-1 cytokine concentration", "setting": "[7]", "value": 217.32, "unit": "pg/mL"}, {"measurement": "IL-2 cytokine concentration", "setting": "[7]", "value": 163.19, "unit": "pg/mL"}, {"measurement": "IL-4 cytokine concentration", "setting": "[7]", "value": 91.65, "unit": "pg/mL"}, {"measurement": "IL-5 cytokine concentration", "setting": "[7]", "value": 215.44, "unit": "pg/mL"}, {"measurement": "IL-6 cytokine concentration", "setting": "[7]", "value": 174.22, "unit": "pg/mL"}, {"measurement": "IL-10 cytokine concentration", "setting": "[7]", "value": 1250.21, "unit": "pg/mL"}, {"measurement": "IL-13 cytokine concentration", "setting": "[7]", "value": 0, "unit": "pg/mL"}, {"measurement": "IL-17 cytokine concentration", "setting": "[7]", "value": 29.47, "unit": "pg/mL"}, {"measurement": "IL-21 cytokine concentration", "setting": "[7]", "value": 0, "unit": "pg/mL"}, {"measurement": "IL-22 cytokine concentration", "setting": "[7]", "value": 143.37, "unit": "pg/mL"}, {"measurement": "IL-27 cytokine concentration", "setting": "[7]", "value": 104.52, "unit": "pg/mL"}, {"measurement": "TNF-α cytokine concentration", "setting": "[7]", "value": 77.76, "unit": "pg/mL"}]}
